In the assay the target is T1, recombinant human 17β-hydroxysteroid dehydrogenase type 1 (Homo sapiens, UniProt P14061).
T1 construct: made in house; host or cells: Sf9 insect cells (baculovirus, Bac to Bac Expression System)
T1 sequence (P14061 1-328): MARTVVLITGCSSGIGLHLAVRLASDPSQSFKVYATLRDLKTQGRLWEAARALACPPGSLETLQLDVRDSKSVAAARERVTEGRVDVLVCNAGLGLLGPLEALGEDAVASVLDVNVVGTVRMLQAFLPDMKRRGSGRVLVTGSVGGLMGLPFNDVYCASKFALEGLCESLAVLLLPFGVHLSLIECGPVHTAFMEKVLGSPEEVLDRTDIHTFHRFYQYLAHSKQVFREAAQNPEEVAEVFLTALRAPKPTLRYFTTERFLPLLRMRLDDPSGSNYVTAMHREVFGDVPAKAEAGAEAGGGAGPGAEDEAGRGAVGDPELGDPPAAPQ
In words: Inhibition of recombinant human 17β-hydroxysteroid dehydrogenase type 1 (conversion of 3H-estrone to estradiol, HPLC radiodetection). Type of assay: biochemical. The note with it: 30 nM 3H-estrone, 1 mM NADPH, 30 min at RT; for inhibition: inhibitor 1 µm, read-out: Inhibition of rec 17β-HSD1. The procedure: 17β-HSD1 purification: Recombinant baculovirus was generated by the "Bac to Bac Expression System" (Invitrogen). Recombinant bacmid was transfected to Sf9 insect cells using "Cellfectin Reagent" (Invitrogen). 60h later cells were harvested; the microsomal fraction was isolated as described by Puranen et al. (1994). Aliquots were stored frozen until determination of enzymatic activity.
Assay - Inhibition of recombinant human 17β-hydroxysteroid dehydrogenase type 1: Recombinant protein (0.1µg/ml) was incubated in 20 mM KH2PO4 pH 7.4 with 30 nM 3H-estrone and 1 mM NADPH for 30 min at RT, in the presence of potential inhibitors at concentrations of 1 µM or 0.1 µM. Inhibitor stock solutions were prepared in DMSO. Final concentration of DMSO was adjusted to 1 % in all samples. The enzyme reaction was stopped by addition of 10 % trichloroacetic acid (final concentration). Samples were centrifuged in a microtiter plate at 4000 rpm for 10 min. Supernatants were applied to reverse phase HPLC on a Waters Symmetry C18 column, equipped with a Waters Sentry Guard column. Isocratic HPLC runs were performed at RT at a flow rate of 1 ml/min of acetonitrile:water 48:52 as running solvent. Radioactivity was monitored in the eluate by a Packard Flow Scintillation Analyzer. Total radioactivity for estrone and estradiol were determined in each sample and percent conversion of estrone to estradiol was calculated according to the following formula: % conversion = 100 × ({(cpm estradiol in sample with inhibitor)/[(cpm estrone in sample with inhibitor)+(cpm estradiol in sample with inhibitor)]})/({(cpm estradiol in sample without inhibitor)/[(cpm estrone in sample without inhibitor)+(cpm estradiol in sample without inhibitor)]}). [formula] [formula]
Table 19: Inhibition of 17β-HSD enzyme type I

In the case of `CCCc1cc2c(cc1O)CC[C@H]1[C@@H]3[C@H](CCCC(=O)Nc4ccc5cn[nH]c5c4)CC(=O)[C@@]3(C)CC[C@H]21` [Example 40], the inhibition (commonly the change of the read-out against control, counted positive when it falls) stood at 75.8%.
In the case of `COc1cc2c(cc1O)CC[C@H]1[C@@H]3[C@@H](CCCC(=O)Nc4ccc5cn[nH]c5c4)CC(=O)[C@@]3(C)CC[C@H]21` [Example 83], the inhibition amounted to 71.6%.
Take `C[C@]12CC[C@@H]3c4ccc(O)cc4CC[C@H]3[C@@H]1[C@H](CCCC(=O)N1CCOCC1)CC2(F)F` [Example 90, 4-(17,17-Difluoro-3-hydroxy-estra-1,3,5(10)-trien-15β-yl)-1-morpholin-4-yl-butan-1-one]: the inhibition is 81.6%.
As for `C[C@]12CC[C@@H]3c4ccc(O)cc4CC[C@H]3[C@@H]1[C@H](CCC(=O)NCc1ccc(O)c(O)c1)CC2(F)F` [Example 127], the inhibition was 81.3%.
As for `C[C@]12CC[C@@H]3c4ccc(O)cc4CC[C@H]3[C@@H]1[C@H](CCC(=O)NC1CCCCC1)CC2(F)F` [Example 121], the inhibition was found to be 92.5%.
Still for that read-out and setting: as for `COc1ccc(CCN(C)C(=O)CC[C@@H]2CC(F)(F)[C@@]3(C)CC[C@@H]4c5ccc(O)cc5CC[C@H]4[C@H]23)cc1OC` [Example 134], the figure is 88.6%; as for `C[C@]12CC[C@@H]3c4ccc(OCc5ccccc5)cc4CC[C@H]3[C@@H]1[C@H](C/C=C/C(=O)N1CCOCC1)c1cnoc12` [161'], 74%; as for `COc1cc(CNC(=O)CC[C@@H]2CC(F)(F)[C@@]3(C)CC[C@@H]4c5ccc(O)cc5CC[C@H]4[C@H]23)cc(OC)c1` [Example 128], 71.7%.
Same read-out and setting: the value for `C[C@]12CC[C@@H]3c4ccc(O)cc4CC[C@H]3[C@@H]1[C@@H](CCCC(=O)NCc1ccccc1)CC2(F)F` [Example 106] was 68%.
For the compound `CCOc1cc2c(cc1O)CC[C@H]1[C@@H]3[C@@H](CCCC(=O)Nc4ccc5cn[nH]c5c4)CC(=O)[C@@]3(C)CC[C@H]21` [Example 59], the inhibition came out at 69.7%.
The same measure, in the same setting: as for `CCCc1cc2c(cc1O)CC[C@H]1[C@@H]3[C@H](CCCC(=O)NCCOC)CC(=O)[C@@]3(C)CC[C@H]21` [Example 41], the figure is 70.4%; as for `CCCc1cc2c(cc1O)CC[C@H]1[C@@H]3[C@H](CCCC(=O)NCCc4c[nH]c5c(C)cccc45)CC(=O)[C@@]3(C)CC[C@H]21` [Example 34], 71.9%; as for `CCN(CC)C(=O)CC[C@@H]1CC(F)(F)[C@@]2(C)CC[C@@H]3c4ccc(O)cc4CC[C@H]3[C@H]12` [Example 133], 90.6%.
For `Cc1cnc(NC(=O)CC[C@@H]2CC(F)(F)[C@@]3(C)CC[C@@H]4c5ccc(O)cc5CC[C@H]4[C@H]23)s1` [Example 93, 3-(17,17-Difluoro-3-hydroxy-estra-1,3,5(10)-trien-15β-yl)-N-(5-methyl-thiazol-2-yl)-propionamide], the inhibition amounted to 86.7%.
Still for that read-out and setting: as for `COc1cc2c(cc1O)CC[C@H]1[C@@H]3[C@@H](CCCC(=O)NCc4ccccc4)CC(=O)[C@@]3(C)CC[C@H]21` [Example 71], the figure is 70.6%.
Consider `CCCc1cc2c(cc1O)CC[C@H]1[C@@H]3[C@H](CCCC(=O)NCc4cccnc4)CC(=O)[C@@]3(C)CC[C@H]21` [Example 32], for which the inhibition is 79%.
Regarding `CCCc1cc2c(cc1O)CC[C@H]1[C@@H]3[C@H](CCCC(=O)N(C)CCc4ccc(OC)c(OC)c4)CC(=O)[C@@]3(C)CC[C@H]21` [Example 38], the inhibition was determined as 76.7%.
Same read-out and setting: as for `C[C@]12CC[C@@H]3c4ccc(O)cc4CC[C@H]3[C@@H]1[C@H](CCC(=O)NCc1ccc3c(c1)OCO3)CC2(F)F` [Example 122], the figure is 77.9%; as for `CCOc1cc2c(cc1O)CC[C@H]1[C@@H]3[C@@H](CCCC(=O)N4CCCCC4)CC(=O)[C@@]3(C)CC[C@H]21` [Example 55], 71.9%; as for `CCOc1cc2c(cc1O)CC[C@H]1[C@@H]3[C@@H](CCCC(=O)NCCc4c[nH]c5c(C)cccc45)CC(=O)[C@@]3(C)CC[C@H]21` [Example 52], 72.2%.
As for `CCCc1cc2c(cc1O)CC[C@H]1[C@@H]3[C@H](CCCC(=O)NCc4ccc(F)cc4F)CC(=O)[C@@]3(C)CC[C@H]21` [Example 42], the inhibition stood at 71.7%.
Same read-out and setting: as for `CCCc1cc2c(cc1O)CC[C@H]1[C@@H]3[C@H](CCCC(=O)N(C)Cc4ccccc4)CC(=O)[C@@]3(C)CC[C@H]21` [Example 37], the figure is 74.7%; as for `C[C@]12CC[C@@H]3c4ccc(O)cc4CC[C@H]3[C@@H]1[C@H](CCC(=O)N1CCCCC1)CC2(F)F` [Example 131], 71.9%.
On to `C[C@]12CC[C@@H]3c4ccc(O)cc4CC[C@H]3[C@@H]1[C@@H](CCCC(=O)N1CCCCC1)CC2(F)F` [Example 113], for which the inhibition was 76.9%.
For `C[C@]12CC[C@@H]3c4ccc(O)cc4CC[C@H]3[C@@H]1[C@@H](CCCC(=O)NC1CCCCC1)CC2(F)F` [Example 102], the inhibition turned out to be 70.6%.
On to `COc1cc2c(cc1O)CCC1C2CCC2(C)C(=O)CC(CCCC(=O)N3CCCCC3)C12` (stereo not drawn) [Example 78], for which the inhibition was found to be 72%. Besides, under “inhibitor 100 nM”, the “Inhibition of rec 17β-HSD1” value is recorded as 40.6%.
On to `C[C@]12CC[C@@H]3c4ccc(O)cc4CC[C@H]3[C@@H]1[C@H](CCC(=O)NC1CC1)CC2(F)F` [Example 120], for which the inhibition is 85%.
Turning to `CCOc1cc2c(cc1O)CC[C@H]1[C@@H]3[C@@H](CCCC(=O)NC4CCCCC4)CC(=O)[C@@]3(C)CC[C@H]21` [Example 44], the inhibition came out at 75%.
On the same count and under the same terms, as for `CCCc1cc2c(cc1O)CC[C@H]1[C@@H]3[C@H](CCCC(=O)N4CCOCC4)CC(=O)[C@@]3(C)CC[C@H]21` [Example 6, 3-Hydroxy-15β-(4-morpholin-4-yl-4-oxo-butyl)-2-propyl-estra-1,3,5(10)-trien-17-one], the figure is 79.3%.
Consider `CCCc1cc2c(cc1O)CC[C@H]1[C@@H]3[C@H](CCCC(=O)NCc4ccccc4)CC(=O)[C@@]3(C)CC[C@H]21` [Example 2, N-Benzyl-4-(3-hydroxy-17-oxo-2-propyl-estra-1,3,5(10)-trien-15β-yl)-butyramide], for which the inhibition is 74.8%.
For `COc1cc2c(cc1O)CC[C@H]1[C@@H]3[C@@H](CCCC(=O)NC4CCCCC4)CC(=O)[C@@]3(C)CC[C@H]21` [Example 67], the inhibition amounted to 73.2%.
In the case of `Cc1cccc2c(CCNC(=O)CCC[C@H]3CC(F)(F)[C@@]4(C)CC[C@@H]5c6ccc(O)cc6CC[C@H]5[C@H]34)c[nH]c12` [Example 111], the inhibition came out at 68.3%.
Regarding `CCCc1cc2c(cc1O)CC[C@H]1[C@@H]3[C@H](CCCC(=O)N4CCCCC4)CC(=O)[C@@]3(C)CC[C@H]21` [Example 36], the inhibition was determined as 78.1%.
Regarding `CCOc1cc2c(cc1O)CC[C@H]1[C@@H]3[C@@H](CCCC(=O)NCc4ccc5c(c4)OCO5)CC(=O)[C@@]3(C)CC[C@H]21` [Example 45], the inhibition worked out at 75.7%.
With `C[C@]12CC[C@@H]3c4ccc(O)cc4CC[C@H]3[C@@H]1[C@@H](CCCC(=O)N1CCOCC1)CC2(F)F` [Example 91, 4-(17,17-Difluoro-3-hydroxy-estra-1,3,5(10)-trien-15a-yl)-1-morpholin-4-yl-butan-1-one], the inhibition amounted to 85%.
For `COc1ccc(CCN(C)C(=O)CCC[C@H]2CC(F)(F)[C@@]3(C)CC[C@@H]4c5ccc(O)cc5CC[C@H]4[C@H]23)cc1OC` [Example 116], the inhibition worked out at 82.4%.
With `COCCc1cc2c(cc1O)CC[C@H]1[C@@H]3[C@H](CCCC(=O)NCc4ccccc4)CC(=O)[C@@]3(C)CC[C@H]21` [Example 3, N-Benzyl-4-(3-hydroxy-2-(2-methoxy-ethyl)-17-oxo-estra-1,3,5(10)-trien-15β-yl)-butyramide], the inhibition was determined as 71.2%.
`C[C@]12CC[C@@H]3c4ccc(O)cc4CC[C@H]3[C@@H]1[C@H](CCC(=O)NCc1ccccc1)CC2(F)F` [Example 125]: the inhibition came to 76.9%.
For `Cc1cccc2c(CCNC(=O)CC[C@@H]3CC(F)(F)[C@@]4(C)CC[C@@H]5c6ccc(O)cc6CC[C@H]5[C@H]34)c[nH]c12` [Example 129], the inhibition amounted to 76.9%.
Still for that read-out and setting: the value for `C[C@]12CC[C@@H]3c4ccc(O)cc4CC[C@H]3[C@@H]1[C@@H](CCCC(=O)NCc1ccc(O)c(O)c1)CC2(F)F` [Example 109] was 70.7%.
For the compound `CCCc1cc2c(cc1O)CC[C@H]1[C@@H]3[C@H](CCCC(=O)NCc4ccc5c(c4)OCO5)CC(=O)[C@@]3(C)CC[C@H]21` [Example 30], the inhibition is 73.6%.

For the origin of these results see patent EP1888615B1, “17 -HSD1 AND STS INHIBITORS” (Abbott Products GmbH, priority 2005, dated 2006).
